Results on 19 compounds are retold here after US8044198B2, “Sirtuin modulating compounds” (Sirtris Pharmaceuticals, Inc., priority 2005, dated 2011).

One assay has as its system NCI-H358 cells. The assay can be described thus: Cellular ATP Assay (ATPLite 1Step normalized to AlamarBlue viability). To be noted: for EC50 / IC50: Homo sapiens; for IC50: compounds that lowered intracellular ATP levels. Type of assay: cell-based. As to the method: Cellular ATP levels are an indirect measurement of cellular metabolic rates and, by extension, mitochondrial function. […] The ATP assay is combined with a cellular viability assay so that cellular ATP levels can be normalized to viable cells. Cellular ATP levels were measured using the ATPLite 1Step Kit (PerkinElmer) and cellular viability was measured using the cell permeable dye, AlamarBlue™.
The Cellular ATP Assay is a multiplexed assay that measures both ATP levels and viability of a given cell sample. This assay is run in a 96-well Assay Plate and data are reported as the [ATP]/viability for each well in the Assay Plate.
The ATPLite 1 Step™ Kit is a single-step luminescent cell-based assay for detection of ATP. The kit contains lyophilized substrate mixture, comprised of D-luciferin and the firefly (Photinus pyralis) enzyme luciferase. Additionally, the kit contains a detergent-based reconstitution buffer that induces the lysis of cellular membranes. The luciferase in the assay mixture catalyzes a reaction between the free cellular ATP and D-luciferin to produce bioluminescence according to the schematic reaction outlined below. The amount of light produced is proportional to the cellular ATP concentration.
The AlamarBlue™ Assay is a single-step assay that utilizes a soluble, non-toxic, cell permeable dye that is added to cell growth media. This dye undergoes electron reduction in viable cells but not dead cells. The reduced dye product gives a fluorescent signal which can be monitored with a fluorescence plate reader (excitation 545 nm and emission 575 nm). The amount of fluorescence generated in a given well is proportional to the number of viable cells. The viability signal generated by this assay is used to normalize the ATP signal from the ATPLite 1Step™ assay results.
The material was dissolved in 100% vehicle (DMSO) to yield a final concentration of 10 mM (stock solution). The stock solution was serially diluted with 100% DMSO as described in SOP 7.10.
In this assay NCI-H358 cells (obtained from the American Tissue Culture Collection, ATCC) were seeded in 96 well microplates (10^4 cells/well). The NCI-H358 Growth Culture Media consists of RPMI 1640 Media supplemented with 10% FBS, […] streptomycin, and 100 units/mL penicillin. […] After 48 hours of compound treatment under cell growth conditions, plates were removed from incubator, and 15 μl of AlamarBlue™ dye was added to each well. Cell microplates were incubated with dye for 2 hours under growth conditions, and fluorescence was subsequently measured using a plate reader. Media containing AlamarBlue™ was removed, and plates were washed in 100 μl of PBS per well. This wash was removed, and 200 μl of 1×ATPLite 1Step reagent was added to each well. Luminescence was then measured using a plate reader. The ATP signal for each well, measured by the luminescence scan, was normalized to its corresponding cell viability value, measured by the fluorescence scan, to generate the average ATP level per viable cell unit (ATP/vCell). The ATP/vCell for each treatment was then normalized to the average vehicle ATP/vCell for its respective cell microplate, yielding the normalized ATP/vCell (norm. ATP/vCell). Finally, the norm. ATP/vCell for each unique treatment was averaged across plate replicates, generating the average norm. ATP/vCell.
Each of these ATP levels was normalized to the cell viability in the corresponding treatment well, generating the ATP/vCell value. Each ATP/vCell value was subsequently normalized to its average Vehicle ATP/vCell values for its respective cell microplate.
Data are represented as the normalized ATP/vCell (arbitrary units). […] These values represent an average of three plate replicates.
A number of compounds were screened for their affect on ATP levels in the assay as described in Example 5. […] NA means that the compound was not tested using the indicated assay.
A general note: Cellular ATP, detected with luciferase, serves as a proxy for viable cell number.

A further assay deals with T1, SIRT1 (Homo sapiens, UniProt Q96EB6).
T1 sequence (Q96EB6 1-747): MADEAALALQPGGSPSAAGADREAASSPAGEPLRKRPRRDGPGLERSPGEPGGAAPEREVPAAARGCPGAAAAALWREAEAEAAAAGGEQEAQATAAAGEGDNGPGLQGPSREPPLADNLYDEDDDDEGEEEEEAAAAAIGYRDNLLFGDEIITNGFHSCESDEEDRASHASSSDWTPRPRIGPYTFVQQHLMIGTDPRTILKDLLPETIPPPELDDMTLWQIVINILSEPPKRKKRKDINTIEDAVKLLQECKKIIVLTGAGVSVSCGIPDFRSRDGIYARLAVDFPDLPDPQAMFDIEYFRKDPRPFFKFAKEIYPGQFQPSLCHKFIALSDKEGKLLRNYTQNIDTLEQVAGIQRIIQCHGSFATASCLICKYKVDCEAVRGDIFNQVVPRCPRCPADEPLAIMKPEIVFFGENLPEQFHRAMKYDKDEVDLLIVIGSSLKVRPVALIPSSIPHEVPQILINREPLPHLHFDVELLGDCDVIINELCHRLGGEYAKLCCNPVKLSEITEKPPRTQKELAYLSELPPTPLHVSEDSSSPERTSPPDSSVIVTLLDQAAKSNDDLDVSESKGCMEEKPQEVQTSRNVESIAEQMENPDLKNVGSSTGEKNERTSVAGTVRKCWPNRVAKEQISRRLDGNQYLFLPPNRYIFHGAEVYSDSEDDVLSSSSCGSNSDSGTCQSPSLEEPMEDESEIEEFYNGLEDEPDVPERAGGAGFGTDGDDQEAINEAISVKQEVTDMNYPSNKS
The assay is described as follows: SIRT1 mass spectrometry (MS) based deacetylation assay. To be noted: for FOLD ACT. MS: fold activation of SIRT1 as determined by MS. Type of assay: biochemical.

Where [1] appears, read: compounds that raised intracellular ATP levels, read-out: ED50 ATP ASSAY.
Where [2] appears, read: SIRT1 activation, mass spectrometry assay, read-out: ED50 MS ASSAY.

Read-outs that look alike come from different tables or passages of the source.

Take `COc1cccc(C(=O)Nc2cccc(-c3nc4ncccc4o3)c2)c1C` [Compound 49]: the EC50 with NCI-H358 cells (setting [1]) was under 50 µM; on SIRT1 (setting [2]) it was 5 to 50 µM. Moreover, the “FOLD ACT. MS” value at SIRT1 is on record as “B (B (Fold Activation <250%))”.
As for `Cc1nc(-c2cccc(NC(=O)c3cccc(N(C)C)c3)c2)cs1` [Compound 79], the EC50 is under 50 µM with NCI-H358 cells (setting [1]) and over 150 µM at SIRT1 (setting [2]).
Consider `O=C(Nc1ccc2c(c1)OCO2)Nc1cc(-c2nc3ccccc3o2)ccn1` [Compound 86, 1-Benzo[1,3]dioxol-5-yl-3-(4-benzoxazol-2-yl-pyridin-2-yl)-urea], for which the results for the EC50 in the assay with NCI-H358 cells (setting [1]) and at SIRT1 were under 50 µM and over 150 µM, respectively.
By IC50 is commonly meant the concentration needed to halve the response being measured. Lower therefore signals greater potency. As for `CN(C)c1cccc(C(=O)N2CCCN(c3nc4ccccc4o3)CC2)c1` [Compound 89], in the assay on NCI-H358 cells, the IC50 is under 50 µM. Also, the EC50 at SIRT1 (setting [2]) was over 150 µM.
In the same order, the values of `COc1cc(C(=O)N2CCCN(c3nc4ccccc4o3)CC2)cc(OC)c1OC` [Compound 91] are under 50 µM and over 150 µM.
As for `Cc1nc(-c2cccc(Nc3nc4ccccc4o3)c2)cs1` [Compound 92], in the assay on NCI-H358 cells, the IC50 was in the range of 51 to 100 µM. The EC50 at SIRT1 (setting [2]) lay within 5 to 50 µM. In addition, the “FOLD ACT. MS” value on SIRT1 is “B (B (Fold Activation <250%))”.
`c1cc(Nc2nc3ccccc3o2)cc(-c2nc3ncccc3o2)c1` [Compound 93]: the figures for the EC50 in the assay with NCI-H358 cells (setting [1]) and at SIRT1 (setting [2]) were over 150 µM and 5 to 50 µM, respectively. The “FOLD ACT. MS” value on SIRT1 is “B (B (Fold Activation <250%))”.
Turning to `CN(C)c1cccc(C(=O)Nc2ccccc2-c2nc3ncccc3o2)c1` [Compound 97], the results for the EC50 with NCI-H358 cells (setting [1]) and on SIRT1 (setting [2]) were under 50 µM and under 5 µM, respectively. Moreover, the “FOLD ACT. MS” value on SIRT1 is “B (B (Fold Activation <250%))”.
For `O=C(Nc1cccc(-c2nc3ccncc3s2)c1)Nc1ccc2c(c1)OCO2` [Compound 99], the EC50 in the assay with NCI-H358 cells (setting [1]) was under 50 µM; at SIRT1 (setting [2]) it was under 5 µM. At SIRT1, the “FOLD ACT. MS” value was “A (A (Fold activation >250%))”.
As for `COc1ccc(NC(=O)c2cccc(-c3nc4ncccc4o3)c2)c(OC)c1` [Compound 100], the figures for the EC50 in the assay with NCI-H358 cells (setting [1]) and on SIRT1 (setting [2]) were under 50 µM and 5 to 50 µM, respectively. The “FOLD ACT. MS” value on SIRT1 is given as “B (B (Fold Activation <250%))”.
As for `COc1ccc(NC(=O)c2cccc(-c3nc4ncccc4o3)c2)cc1OC` [Compound 101], the EC50 was in the range of 101 to 150 µM in the assay with NCI-H358 cells (setting [1]) and 5 to 50 µM on SIRT1 (setting [2]). For the same compound, the “FOLD ACT. MS” value at SIRT1 was “A (A (Fold activation >250%))”.
Take `COc1cc(NC(=O)c2cccc(-c3nc4ncccc4o3)c2)cc(OC)c1OC` [Compound 102, 3-(oxazolo[4,5-b]pyridin-2-yl)-N-(3,4,5-trimethoxyphenyl)benzamide]: the EC50 was under 50 µM in the assay on NCI-H358 cells (setting [1]) and 5 to 50 µM on SIRT1 (setting [2]). The “FOLD ACT. MS” value at SIRT1 is on record as “A (A (Fold activation >250%))”.
For `c1cc(Nc2nc3ccccc3s2)nc(-c2nc3ncccc3o2)c1` [Compound 104], the results for the EC50 in the assay on NCI-H358 cells (setting [1]) and on SIRT1 (setting [2]) were under 50 µM and under 5 µM, respectively. Further, at SIRT1, the “FOLD ACT. MS” value is recorded as “B (B (Fold Activation <250%))”.
As to `c1cc(Nc2nc3ccccc3o2)nc(-c2nc3ncccc3o2)c1` [Compound 105], the EC50 with NCI-H358 cells (setting [1]) is under 50 µM; at SIRT1 (setting [2]) it was under 5 µM. At SIRT1, the “FOLD ACT. MS” value is listed as “B (B (Fold Activation <250%))”.
Consider `COc1cc(C(=O)Nc2ccccc2-c2nc3ncccc3o2)cc(OC)c1OC` [Compound 106], for which the values for the EC50 in the assay with NCI-H358 cells (setting [1]) and on SIRT1 (setting [2]) were under 50 µM and under 5 µM, respectively. Further, the “FOLD ACT. MS” value on SIRT1 is on record as “B (B (Fold Activation <250%))”.
Regarding `COc1cc(C(=O)Nc2cccc(-c3nc4ccncc4s3)c2)cc(OC)c1OC` [Compound 115], the results for the EC50 with NCI-H358 cells (setting [1]) and at SIRT1 (setting [2]) were over 150 µM and 5 to 50 µM, respectively. Further, the “FOLD ACT. MS” value on SIRT1 is given as “A (A (Fold activation >250%))”.
`COc1ccc(C(=O)Nc2cccc(-c3nc4cc(C)ccc4[nH]3)c2)cc1OC` [Compound 117] yielded an IC50 in the assay on NCI-H358 cells of 51 to 100 µM. The EC50 at SIRT1 (setting [2]) lay within 5 to 50 µM. The “FOLD ACT. MS” value at SIRT1 is reported as “A (A (Fold activation >250%))”.
On to `COc1cc(C(=O)Nc2cc(CO)cc(-c3nc4ccncc4s3)c2)cc(OC)c1OC` [Compound 135], for which the EC50 in the assay with NCI-H358 cells (setting [1]) was under 50 µM; at SIRT1 (setting [2]), under 5 µM. Further, the “FOLD ACT. MS” value on SIRT1 is reported as “B (B (Fold Activation <250%))”.
With `Oc1ccc(C=Cc2cc(O)cc(O)c2)cc1` [resveratrol, reference compound], in the assay with NCI-H358 cells (48 hours treatment, at 50 μM resveratrol, normalized ATP/vCell), the “maximum increase in cellular ATP levels” value worked out at 3.0 fold. Further, the EC50 with NCI-H358 cells (48 hours, 50% of the maximum increase in normalized ATP/vCell, read-out: EC50 ATP) worked out at 29 µM.
